Literature values, collected in patent US8652520B2, “Combination tablet with chewable outer layer” (Vitalis LLC, priority 2007, dated 2014).

Columns and labels:
[1] = tested on: anti-platelet activity of aspirin; conditions: co-administered with aspirin, literature
[2] = risk of bleeding peptic ulcer, literature

| Structure (SMILES) | anti-platelet activity of aspirin when given in conjunction [1] | GI side effects among the NSAID agents [2] |
| --- | --- | --- |
| CC(C)Cc1ccc(C(C)C(=O)O)cc1 (stereo not drawn) [ibuprofen, 2-[4-(2-methylpropyl)phenyl]propanoic acid] | decreased | least GI side effects |
| O=C(O)Cc1ccccc1Nc1c(Cl)cccc1Cl [diclofenac] | – | least GI side effects |
